Structures can show the parent of a compound that is named as a salt. Where two headings read alike, the source gives them in different places.
Assays:
[1] = Hygroscopicity by TGA after one day at ambient temperature and 93% relative humidity; type: physicochemical; details: ambient temperature
Experimental: The hygroscopicity of the salts of the invention was determined by TGA after one day at ambient temperature and 93% relative humidity.

[2] = Decomposition temperature by TGA; type: physicochemical; details: for Decomposition temperature: TGA, onset of the first derivative of sample weight loss v. temperature; for decomposes at: as stated in the description of the embodiments
Experimental: The LOD and decomposition temperature of the salts of the invention were determined by TGA, and the melting point was determined by DSC.

[3] = pH 3.0 buffer, ambient temperature, at least 20 hours
Experimental: The solubility of the salts of the invention was determined in pH 6.8, pH 3.0 and pH 1.0 buffers by suspending 1-5 mg of each salt in 10 mL of corresponding aqueous solution. The samples were allowed to equilibrate at ambient temperature for at least 20 hours for pH 6.8 and 3.0 or about 5 hours for pH 1.0. The supernatant was filtered and used for the solubility determination by UV-VIS spectroscopy.

[4] = pKa values of the free base; type: physicochemical; details: two values
Experimental: In a second step of the present inventive method, the 4-methyl-N-[3-(4-methyl-imidazol-1-yl)-5-trifluoromethyl-phenyl]-3-(4-pyridin-3-yl-pyrimidin-2-ylamino)-benzamide free base is treated with an appropriate acid of the formula HB. […] Suitable acids include, without limitation, inorganic acids such as hydrochloric acid, phosphoric acid, sulfuric acid, and sulfonic acid and organic acids such as methane sulfonic acid, ethane sulfonic acid, benzene sulfonic acid, p-toluene sulfonic acid, citric acid, fumaric acid, gentisic acid, malonic acid, maleic acid, and tartaric acid.

[5] = Stability of solutions or suspensions (Table 15); type: physicochemical
[6] = Solid state stability: heat, humidity, xenon light (Table 15); type: physicochemical
[7] = Intrinsic Dissolution Rate (rotating disk method); type: physicochemical; details: 37° C., 200 rpm
Experimental: Intrinsic Dissolution Rate (IDR): Dissolution rate measurements were performed at 37° C. using the rotating disk method (VanKell Instrument). A single rotation speed of 200 rpm was used. For IDR in 0.1 N HCl, an 800 mL volume, and for IDE in water, a 200 mL volume were used. The solution was continuously pumped through a UV measuring cell and recycled to the dissolution vessel.

[8] = pH of 1% solution or suspension in water; type: physicochemical; details: 1% in water; listed as Free base form B
[9] = listed as Control - free base form B
[10] = 0.1% solutions or suspensions, 1 week at 80° C., Acetonitrile
[11] = 0.1% solutions or suspensions, 1 week at 80° C., Ethanol
[12] = 0.1% solutions or suspensions, 1 week at 80° C., Methanol
[13] = 0.1% solutions or suspensions, 1 week at 80° C., Water (pH measured: 4.74; pH measured for HCl salt: 4.22)
[14] = 0.1% solutions or suspensions, 1 week at 80° C., pH 1 (pH measured: 1.26)
[15] = 0.1% solutions or suspensions, 1 week at 80° C., pH 2 (pH measured: 2.00)
[16] = 0.1% solutions or suspensions, 1 week at 80° C., pH 3 (pH measured: 2.94)
[17] = 0.1% solutions or suspensions, 1 week at 80° C., pH 5 (pH measured: 5.01)
[18] = 0.1% solutions or suspensions, 1 week at 80° C., pH 7 (pH measured: 6.02)
[19] = 0.1% solutions or suspensions, 1 week at 80° C., pH 9 (pH measured: 8.92)
[20] = 0.1% solutions or suspensions, 1 week at 80° C., pH 11 (pH measured: 10.86)
[21] = 0.1% solutions or suspensions, PH 1, 1 week @ 50° C.
[22] = 2% solutions or suspensions, 1 day at room temperature, 0.5% CMC
[23] = 2% solutions or suspensions, 1 day at room temperature, 0.5% HPMC cellulose 4000
[24] = 2% solutions or suspensions, 1 day at room temperature, 0.8% Tween 80
[25] = 5% solutions in DMSO, 1 day at room temperature, 1:100 dilution in pH 6.8 buffer
[26] = Solid state, 1 week 80° C., 75% relative humidity, 30% in mixture 1
[27] = Solid state, 1 week 80° C., 75% relative humidity, 30% in mixture 2
[28] = Solid state, 1 week 80° C., 75% relative humidity, Bulk (HPLC)
[29] = Solid state, 1 week 80° C., tight container, 30% in mixture 1
[30] = Solid state, 1 week 80° C., tight container, 30% in mixture 2
[31] = Solid state, 1 week 80° C., tight container, Bulk (HPLC)
[32] = Xenon light (approximately 200 kLuxh), Bulk (HPLC)

Cc1cn(-c2cc(NC(=O)c3ccc(C)c(Nc4nccc(-c5cccnc5)n4)c3)cc(C(F)(F)F)c2)cn1 [Benzene sulfonate, 4-methyl-N-[3-(4-methyl-imidazol-1-yl)-5-trifluoromethyl-phenyl]-3-(4-pyridin-3-yl-pyrimidin-2-ylamino)-benzamide mono benzyl sulfonate salt]
% moisture gain [1]: 0.11%
Decomposition temperature [2]: 260 °C
decomposes at ([2]; listed as benzene sulfonate salt): about 260 °C

CCS(=O)(=O)O.Cc1cn(-c2cc(NC(=O)c3ccc(C)c(Nc4nccc(-c5cccnc5)n4)c3)cc(C(F)(F)F)c2)cn1 [Ethane sulfonate, ethane sulfonate salt of 4-methyl-N-[3-(4-methyl-imidazol-1-yl)-5-trifluoromethyl-phenyl]-3-(4-pyridin-3-yl-pyrimidin-2-ylamino)-benzamide]
% moisture gain [1]: 1.11%
Decomposition temperature [2]: 220 °C
decomposes at [2]: about 220 °C
Solubility at pH 3.0 [3]: 2.8 μg/mL

Cc1cn(-c2cc(NC(=O)c3ccc(C)c(Nc4nccc(-c5cccnc5)n4)c3)cc(C(F)(F)F)c2)cn1 [Free base (form B), 4-methyl-N-[3-(4-methyl-imidazol-1-yl)-5-trifluoromethyl-phenyl]-3-(4-pyridin-3-yl-pyrimidin-2-ylamino)-benzamide]
pKa [4]: 5.1
% moisture gain [1, 9]: 0.08%
Appearance [5, 10]: A*
Assay [5, 10]: 100.16
Assay [% area]: bracketed % area [5, 10]: 100.00 % area
Appearance [5, 11]: A*
Assay [5, 11]: 99.85
Assay [% area]: bracketed % area [5, 11]: 99.96 % area
Appearance [5, 12]: A*
Assay [5, 12]: 98.04
Assay [% area]: bracketed % area [5, 12]: 98.90 % area
Appearance [5, 13]: A↓
Assay [5, 13]: 101.93
Assay [% area]: bracketed % area [5, 13]: 100.00 % area
Appearance [5, 14]: A*
Assay [5, 14]: 50.22
Assay [% area]: bracketed % area [5, 14]: 45.31 % area
Appearance [5, 15]: B↓
Assay [5, 15]: 96.00
Assay [% area]: bracketed % area [5, 15]: 94.86 % area
Appearance [5, 16]: A↓
Assay [5, 16]: 102.19
Assay [% area]: bracketed % area [5, 16]: 100.00 % area
Appearance [5, 17]: A↓
Assay [5, 17]: 100.80
Assay [% area]: bracketed % area [5, 17]: 100.00 % area
Appearance [5, 18]: A↓
Assay [5, 18]: 100.14
Assay [% area]: bracketed % area [5, 18]: 100.00 % area
Appearance [5, 19]: A↓
Assay [5, 19]: 99.19
Assay [% area]: bracketed % area [5, 19]: 100.00 % area
Appearance [5, 20]: A↓
Assay [5, 20]: 100.50
Assay [% area]: bracketed % area [5, 20]: 100.00 % area
Appearance [5, 21]: A*
Assay [5, 21]: 94.01
Assay [% area]: bracketed % area [5, 21]: 93.44 % area
Appearance [5, 22]: A↓
Assay [5, 22]: 98.28
Assay [% area]: bracketed % area [5, 22]: 100.00 % area
Appearance [5, 23]: A↓
Assay [5, 23]: 98.27
Assay [% area]: bracketed % area [5, 23]: 100,00 % area
Appearance [5, 24]: A↓
Assay [5, 24]: 98.78
Assay [% area]: bracketed % area [5, 24]: 100.00 % area
Appearance [5, 25]: A↓
Assay [5, 25]: 96.98
Assay [% area]: bracketed % area [5, 25]: 100.00 % area
Assay ([5]; Unstressed): 100.99
Assay [% area]: bracketed % area ([5]; Unstressed): 100.00 % area
Bulk (XRPD) ([6]; Solid state, 1 week 80° C., 75% relative humidity): No change
Assay [6, 26]: 99.38
Assay [% area]: bracketed % area [6, 26]: 100.00 % area
Assay [6, 27]: 89.37
Assay [% area]: bracketed % area [6, 27]: 96.02 % area
Assay [6, 28]: 99.97
Assay [% area]: bracketed % area [6, 28]: 100.00 % area
Bulk (XRPD) ([6]; Solid state, 1 week 80° C., tight container): No change
Assay [6, 29]: 100.11
Assay [% area]: bracketed % area [6, 29]: 100.00 % area
Assay [6, 30]: 94.28
Assay [% area]: bracketed % area [6, 30]: 97.75 % area
Assay [6, 31]: 99.77
Assay [% area]: bracketed % area [6, 31]: 100.00 % area
Bulk (XRPD) ([6]; Xenon light (approximately 200 kLuxh)): No change
Assay [6, 32]: 96.03
Assay [% area]: bracketed % area [6, 32]: 100.00 % area
Intrinsic dissolution rate ([7]; Water, listed as Free base form B): 0.0013 mg min^−1 cm^−2
Intrinsic dissolution rate ([7]; pH 1 (0.1N HCl)): 0.17 mg min^−1 cm^−2
pH of 1% solution or suspension in water [8]: 7.99
Solubility at pH 3.0 [3, 9]: 2.8 μg/mL

Cc1cn(-c2cc(NC(=O)c3ccc(C)c(Nc4nccc(-c5cccnc5)n4)c3)cc(C(F)(F)F)c2)cn1 [Methane sulfonate, 4-methyl-N-[3-(4-methyl-imidazol-1-yl)-5-trifluoromethyl-phenyl]-3-(4-pyridin-3-yl-pyrimidin-2-ylamino)-benzamide mesylate salt]
% moisture gain ([1]; mesylate salt): 0.22%
Decomposition temperature ([2]; mesylate salt): 260 °C
decomposes at ([2]; listed as methane sulfonate (mesylate) salt, mesylate salt): about 260 °C
Solubility at pH 3.0 ([3]; listed as Methane sulfonate salt, mesylate salt): 5.2 μg/mL

Cc1cn(-c2cc(NC(=O)c3ccc(C)c(Nc4nccc(-c5cccnc5)n4)c3)cc(C(F)(F)F)c2)cn1 [Monophosphate, 4-methyl-N-[3-(4-methyl-imidazol-1-yl)-5-trifluoromethyl-phenyl]-3-(4-pyridin-3-yl-pyrimidin-2-ylamino)-benzamide monophosphate salt]
% moisture gain ([1]; monophosphate salt): 1.33%
Decomposition temperature ([2]; monophosphate salt): 212 °C
decomposes at ([2]; monophosphate salt): about 212 °C

Cc1cn(-c2cc(NC(=O)c3ccc(C)c(Nc4nccc(-c5cccnc5)n4)c3)cc(C(F)(F)F)c2)cn1.O=S(=O)(O)O [Sulfate (form B), sulfate salt of 4-methyl-N-[3-(4-methyl-imidazol-1-yl)-5-trifluoromethyl-phenyl]-3-(4-pyridin-3-yl-pyrimidin-2-ylamino)-benzamide]
% moisture gain [1]: 0.22%
Decomposition temperature [2]: 201 °C
decomposes at [2]: about 206 °C
Solubility at pH 3.0 [3]: 6.5 μg/mL

Cc1cn(-c2cc(NC(=O)c3ccc(C)c(Nc4nccc(-c5cccnc5)n4)c3)cc(C(F)(F)F)c2)cn1.O=P(O)(O)O.O=P(O)(O)O [diphosphate salt, diphosphate salt of 4-methyl-N-[3-(4-methyl-imidazol-1-yl)-5-trifluoromethyl-phenyl]-3-(4-pyridin-3-yl-pyrimidin-2-ylamino)-benzamide]
decomposes at [2]: about 210 °C

Cc1cn(-c2cc(NC(=O)c3ccc(C)c(Nc4nccc(-c5cccnc5)n4)c3)cc(C(F)(F)F)c2)cn1 [p-Toluene sulfonate, 4-methyl-N-[3-(4-methyl-imidazol-1-yl)-5-trifluoromethyl-phenyl]-3-(4-pyridin-3-yl-pyrimidin-2-ylamino)-benzamide p-toluene sulfonate salt]
% moisture gain [1]: 1.02%
Decomposition temperature [2]: 256 °C
decomposes at [2]: about 256 °C

— patent US8580806B2, “Salts of 4-methyl N-[3-(4-methyl-imidazol-1-yl)-5-trifluoromethyl-phenyl]-3-(4-pyridin-3-yl-pyrimidin-2-ylamino)-benzamide” (Novartis AG, priority 2005, dated 2013)
